What was measured:
H1299 (lung) = assay: MTT in vitro cytotoxic activity assay, H1299; format: cell-based; details: Homo sapiens, NCI-H1299; H1299 (lung) cells, exposed for 96 hours; read-out: IC50, 50% inhibition of cell proliferation
Procedure: (§1) Compounds 1-12 were screened for their in vitro cytotoxic activity utilizing a 3-(4,5-dimethyl-thiazol-2-yl)-2,5-diphenyltetrazolium bromide (MTT) assay against selected cancer human cell lines consisting of PC3 (prostate), HCT116 (colon), A375 (melanoma), H1299 (lung), MIAPaCa-2 (pancreas), HL60 (leukemia), MCF7 (breast), MDA-MB-231 (breast) (T. Mosmann, J. Immunol. Meth., 1983, 65, 55-63). The cells were cultured at 37° C. in RMPI1640 medium supplemented with 10% fetal bovine serum, 50 IU/mL penicillin, and 50 μg/mL streptomycin in a 5% CO2 incubator. All cells were sub-cultured 3 times/week by trypsinisation. Viable cells were seeded and allowed to adhere for 12 h before a test drug was added in 96-well plates at an initial density of 1.0×10^5 cells/mL. Tumour cell lines were separately exposed to various concentrations of the tested compounds followed by incubation at a temperature of 37° C. during 96 h inside a medium of fresh RMPI 1640. Cells were subsequently incubated at 37° C. using MTT at 0.5 mg/mL during 4 h. After removal of supernatant, formazan crystals were dissolved in isopropanol and the optical density was measured at 570 nm. CX-4945 was used as a positive control.

MIAPaCa-2 (pancreas) = assay: MTT in vitro cytotoxic activity assay, MIAPaCa-2; format: cell-based; details: Homo sapiens, MIA PaCa-2; MIAPaCa-2 (pancreas) cells, exposed for 96 hours; read-out: IC50, 50% inhibition of cell proliferation
Procedure: as §1

PC3 (prostate) = assay: MTT in vitro cytotoxic activity assay, PC3; format: cell-based; details: Homo sapiens, Prostate cell; PC3 (prostate) cells, exposed for 96 hours; read-out: IC50, 50% inhibition of cell proliferation
Procedure: as §1

MCF7 (breast) = assay: MTT in vitro cytotoxic activity assay, MCF7; format: cell-based; details: Homo sapiens; MCF7 (breast) cells, exposed for 96 hours; read-out: IC50, 50% inhibition of cell proliferation
Procedure: as §1

HCT116 (colon) = assay: MTT in vitro cytotoxic activity assay, HCT116; format: cell-based; details: Homo sapiens, HCT-116; HCT116 (colon) cells, exposed for 96 hours; read-out: IC50, 50% inhibition of cell proliferation
Procedure: as §1

A375 (melanoma) = assay: MTT in vitro cytotoxic activity assay, A375; format: cell-based; details: Homo sapiens, A-375; A375 (melanoma) cells, exposed for 96 hours; read-out: IC50, 50% inhibition of cell proliferation
Procedure: as §1

recombinant human CK2 = target: T1, recombinant human CK2 (Homo sapiens, UniProt P68400); assay: CK2 kinase assay (33P-ATP, substrate peptide RRRDDDSDDD); format: biochemical; details: final ATP concentration 15 μM, 10 min at 30° C; read-out: IC50, protein kinase CK2 activity
T1 construct: purchased Millipore
Procedure: CK2 Kinase Assay was conducted using the protocol as described in Pierre F. et al; J. Med. Chem. 2011, 54, 635-654. The tested compounds in aqueous solution were added at a volume of 10 μL to a reaction mixture comprising 10 μL of assay dilution buffer (ADB; 20 mM MOPS, pH 7.2, 25 mM (β-glycerol phosphate, 5 mM EGTA, 1 mM sodium orthovanadate, and 1 mM dithiothreitol), 10 μL of substrate peptide (RRRDDDSDDD, dissolved in ADB at a concentration of 1 mM), 10 μL of recombinant human CK2 (RRfββ-holoenzyme, 25 ng dissolved in ADB; Millipore). Reactions were initiated by the addition of 10 μL of ATP solution (90% 75 mMMgCl2, 75 μM ATP (final ATP concentration: 15 μM) dissolved in ADB; 10% [γ-33P] ATP (stock 1 mCi/100 μL; 3000 Ci/mmol (Perkin-Elmer) and maintained for 10 min at 30° C. The reactions were quenched with 100 μL of 0.75% phosphoric acid and then transferred to and filtered through a phosphor cellulose filter plate (Millipore). After washing each well five times with 0.75% phosphoric acid, the plate was dried under vacuum for 5 min and, following the addition of 15 μL of scintillation fluid to each well, the residual radioactivity was measured using a Wallac luminescence counter. The IC50 values were derived from eight concentrations of test inhibitors.

MDA-MB-231 (breast) = assay: MTT in vitro cytotoxic activity assay, MDA-MB-231; format: cell-based; details: Homo sapiens; MDA-MB-231 (breast) cells, exposed for 96 hours; read-out: IC50, 50% inhibition of cell proliferation
Procedure: as §1

HL60 (leukemia) = assay: MTT in vitro cytotoxic activity assay, HL60; format: cell-based; details: Homo sapiens, HL-60; HL60 (leukemia) cells, exposed for 96 hours; read-out: IC50, 50% inhibition of cell proliferation
Procedure: as §1

T1 sequence (P68400 whole entry): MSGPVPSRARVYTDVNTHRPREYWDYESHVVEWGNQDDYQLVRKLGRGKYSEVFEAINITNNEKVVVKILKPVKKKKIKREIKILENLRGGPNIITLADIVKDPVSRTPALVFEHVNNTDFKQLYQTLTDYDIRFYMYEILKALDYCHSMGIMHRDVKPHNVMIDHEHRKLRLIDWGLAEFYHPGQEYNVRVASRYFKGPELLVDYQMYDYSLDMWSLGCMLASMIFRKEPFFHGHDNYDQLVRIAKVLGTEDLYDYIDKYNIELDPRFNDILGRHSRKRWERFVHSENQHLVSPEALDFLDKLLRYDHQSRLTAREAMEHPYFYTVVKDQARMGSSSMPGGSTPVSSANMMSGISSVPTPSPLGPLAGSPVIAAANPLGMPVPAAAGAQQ
T1 sequence (P67870 whole entry partner): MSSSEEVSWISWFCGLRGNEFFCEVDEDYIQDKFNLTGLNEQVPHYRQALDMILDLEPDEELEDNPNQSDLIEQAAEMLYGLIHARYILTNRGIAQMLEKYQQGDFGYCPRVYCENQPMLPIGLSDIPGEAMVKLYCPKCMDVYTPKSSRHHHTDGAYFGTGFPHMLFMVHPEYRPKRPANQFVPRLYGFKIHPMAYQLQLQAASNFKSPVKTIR

O=C(O)c1ccc2c(c1)cc1nc(Nc3cccc(Cl)c3)c3ccncc3n12 [Compound 1, 5-((3-chlorophenyl)amino)pyrido[4′,3′:5,6]pyrimido[1,2-a]indole-9-carboxylic acid]
IC50 (H1299 (lung)): 1.9 µM | IC50 (MIAPaCa-2 (pancreas)): 1.4 µM | IC50 (PC3 (prostate)): 2.2 µM | IC50 (MCF7 (breast)): 6.9 µM | IC50 (HCT116 (colon)): 1.8 µM | IC50 (A375 (melanoma)): 3.5 µM | IC50 (recombinant human CK2): 0.015 µM | IC50 (MDA-MB-231 (breast)): 5.5 µM | IC50 (HL60 (leukemia)): 3.3 µM

Reference: patent US11858934B1, “Substituted pyrido[4′,3′:5,6]pyrimido[1,2-a]indoles as CK2 inhibitors” (KING FAISAL UNIVERSITY, priority 2023, dated 2024)
